Measured values from PMC3449313 (Peptides, 2012).

Tests used:
[1] = system: D. melanogaster adult gut; assay: adult gut contraction; format: in vivo, Drosophila melanogaster; conditions: 0.1 nM; without PI; relative to the effect of DMS; mean
[2] = system: D. melanogaster pupal heart (white prepupae); format: in vivo, Drosophila melanogaster; conditions: 1 uM; without PI; relative to the effect of DMS; mean

VFLRFamide [[6-10]DMS]
% Inhibition Adult gut (without protease inhibitor) [1]: 78%
% Inhibition Pupal heart (without protease inhibitor) [2]: 103%
